This note sets out measurements from PubChem BioAssay (NCI).

Where “and” joins values, the source holds several entries; their conditions need not be identical. Equal values may be shown once.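 1) Cells in 96-well plates. 2) Compound, 48 h, 5 concentrations. 3) Linear interpolation between surrounding doses. 4) Unreached endpoint = highest concentration. GI50 = concentration required for 50% inhibition of growth. TGI is the concentration that stops growth completely.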 Where a SMILES comes first, the peptide text is derived from it. [ ]: non-standard residue; d: D form. The star is where a group is joined. ξ: configuration not given here. X6 = FC(F)(F)c1cc(NC(=S)*)cc(C(F)(F)F)c1; ξF = NC(Cc1ccccc1)C(=O)O

Test systems include MDA-MB-231 breast; NCI/ADR-RES ovarian; T-47D breast.
Holding throughout (test): NCI-60 cell line screen, 48 h

For the compound `CCCCCN(CCCCC)CC(O)c1cc(C)c2ccc3cc(C(C)C)ccc3c2c1` (stereo unspecified), the GI50 with MDA-MB-231 breast is 1.79 µM; in the experiment with NCI/ADR-RES ovarian, 2.16 µM; in the experiment with T-47D breast it was 1.95 µM. Besides, the TGI with MDA-MB-231 breast is 3.77 µM; with NCI/ADR-RES ovarian, 4.61 µM; in the experiment with T-47D breast, 4.38 µM.
On to `O=C(Nc1ccc(Cl)c(Cl)c1)Nc1ccc(Cl)c(Cl)c1`, for which the GI50 is 1.63 µM and 1.73 µM in the experiment on MDA-MB-231 breast; 3.03 µM and 2.7 µM in the experiment on NCI/ADR-RES ovarian; 2.01 µM and 4.22 µM in the experiment with T-47D breast. Besides, the TGI is 3.79 µM and 3.7 µM in the experiment with MDA-MB-231 breast; 12.9 µM and 14 µM with NCI/ADR-RES ovarian; 8.12 µM and 49 µM in the experiment with T-47D breast.
Regarding `O=C(Nc1ccccc1OC(F)(F)F)Nc1n[nH]c2ccccc12`, the GI50 with MDA-MB-231 breast is 17.9 µM; in the experiment with NCI/ADR-RES ovarian, 44.2 µM; in the experiment on T-47D breast, 37.5 µM. Further, the TGI in the experiment with MDA-MB-231 breast, in the experiment with NCI/ADR-RES ovarian and in the experiment with T-47D breast was over 100 µM each time.
As to `COc1ccc2c(C3=C(c4cn(C)c5ccccc45)C(=O)NC3=O)cn(C)c2c1`, in the experiment on MDA-MB-231 breast, the GI50 was 0.542 µM and the TGI was over 25 µM. Also, in the experiment with NCI/ADR-RES ovarian, the GI50 was 0.0928 µM and the TGI was over 25 µM.
Regarding `COc1ccc2c(c1)/C(=C/c1c(C)nc3sc(C)nn13)C(=O)N2`, the GI50 is 7.59 µM with MDA-MB-231 breast, 1.83 µM in the experiment on NCI/ADR-RES ovarian and 2.53 µM in the experiment on T-47D breast. Also, the TGI was over 100 µM with MDA-MB-231 breast, 13.6 µM in the experiment with NCI/ADR-RES ovarian and over 100 µM in the experiment on T-47D breast.
On to `CC1(C)CCc2c(c3c(c4c(=O)c(O)c(-c5ccc(O)cc5)oc24)OC(C)(C)CC3)O1`, for which the GI50 in the experiment with MDA-MB-231 breast is 28.3 µM; with NCI/ADR-RES ovarian, 55.7 µM; in the experiment with T-47D breast, 72.7 µM. In addition, the TGI is 84.1 µM in the experiment on MDA-MB-231 breast, over 100 µM with NCI/ADR-RES ovarian and over 100 µM in the experiment with T-47D breast.
`CCC(CO)Nc1nc2ccc(Cl)cc2c2ccccc12` (stereo unspecified): the GI50 was 4.9 µM in the experiment with MDA-MB-231 breast, 5.95 µM in the experiment on NCI/ADR-RES ovarian and 6.13 µM with T-47D breast. Moreover, the TGI worked out at 15.9 µM with MDA-MB-231 breast, 21.4 µM in the experiment with NCI/ADR-RES ovarian and 20.9 µM with T-47D breast.
Take `COc1cc(Cc2cnc(/N=C3\C(=O)N(CN4CCN(c5c(F)cc6c(=O)c(C(=O)O)cn(C7CC7)c6c5OC)CC4C)c4ccc(F)cc43)nc2N)cc(OC)c1OC` (stereo unspecified): the GI50 with MDA-MB-231 breast is 11.8 µM; in the experiment on NCI/ADR-RES ovarian, 11.8 µM; with T-47D breast it was 2.85 µM. The results for the TGI in the experiment on MDA-MB-231 breast, in the experiment on NCI/ADR-RES ovarian and with T-47D breast were 30.3 µM, 29.4 µM and 24.3 µM, respectively.
Regarding `O=S(=O)(NC1=NCCN1C(=S)SN1CCn2c1nsc2=S)c1ccc(OC(F)(F)F)cc1`, the GI50 in the experiment on MDA-MB-231 breast is 15.1 µM; in the experiment on NCI/ADR-RES ovarian it was 20.5 µM; in the experiment on T-47D breast it was 13.9 µM. Also, the results for the TGI in the experiment on MDA-MB-231 breast, with NCI/ADR-RES ovarian and with T-47D breast were 36.1 µM, over 100 µM and 44.4 µM, respectively.
`Cc1ccc(NC2=C(Cl)C(=O)N(Cc3ccccc3)C2=O)cc1O`: the GI50 with MDA-MB-231 breast is 21 µM; with NCI/ADR-RES ovarian it was 30.8 µM; with T-47D breast it was 44.9 µM. Also, the figures for the TGI in the experiment on MDA-MB-231 breast, in the experiment on NCI/ADR-RES ovarian and with T-47D breast were 61.5 µM, over 100 µM and over 100 µM, respectively.
`COc1cc(/C=N/NC(=O)c2ccc(C(F)(F)F)nc2Nc2ccc(Cl)cc2C)ccc1O`: the GI50 in the experiment with MDA-MB-231 breast was 0.939 µM; with NCI/ADR-RES ovarian, 2.66 µM; in the experiment with T-47D breast, 1.49 µM. Moreover, the TGI stood at 10.3 µM in the experiment with MDA-MB-231 breast, 9.97 µM with NCI/ADR-RES ovarian and 18 µM in the experiment with T-47D breast.
`Cn1c2ccccc2c2c(Nc3ccccc3)c3ccccc3nc21`: the GI50 in the experiment with MDA-MB-231 breast was 2.75 µM; in the experiment with NCI/ADR-RES ovarian, 54.1 µM; in the experiment with T-47D breast, 40.5 µM. Besides, the TGI was 22.9 µM in the experiment on MDA-MB-231 breast, over 100 µM in the experiment with NCI/ADR-RES ovarian and over 100 µM in the experiment on T-47D breast.
With `COC(=O)[C@@H](NC(=O)CNC(=O)[C@H]1CCCN1C(=O)C(Cc1ccccc1)NC(=S)Nc1cc(C(F)(F)F)cc(C(F)(F)F)c1)C(C)C` (stereo partly specified) (X6-[ξF][dP]GV-OMe), the GI50 in the experiment with MDA-MB-231 breast was 1.48 µM; in the experiment with NCI/ADR-RES ovarian, 3.47 µM; in the experiment with T-47D breast, 3.87 µM. Moreover, the values for the TGI in the experiment on MDA-MB-231 breast, in the experiment on NCI/ADR-RES ovarian and in the experiment on T-47D breast were 3.14 µM, 43.3 µM and 28.8 µM, respectively.
`NC(=O)c1cccc2cn(-c3ccc([C@@H]4CCCNC4)cc3)nc12`: the GI50 in the experiment on MDA-MB-231 breast was 11.7 µM; with NCI/ADR-RES ovarian, 19.5 µM; with T-47D breast it was 12.9 µM. Also, the TGI is 31.2 µM in the experiment on MDA-MB-231 breast, over 74.5 µM in the experiment on NCI/ADR-RES ovarian and 35.5 µM in the experiment with T-47D breast.
Consider `COc1cc(CNc2cnc3cc(N)cc(N)c3n2)cc(OC)c1`, for which, in the experiment with MDA-MB-231 breast, the GI50 is 5.58 µM and the TGI turned out to be 20.4 µM. In the experiment with NCI/ADR-RES ovarian, the GI50 was 34.3 µM and the TGI is over 100 µM.
